# Columns and labels:
# Experiment in all cases: AlphaScreen proximity-based integrin binding assay with TGF-b1 LAP
# Settings in all cases: values given as ranges
# human integrin αVβ8 = human integrin αVβ8 (Homo sapiens, UniProt P06756+P26012)
# Summary of the method: (§1)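 Purified human integrin incubated with compound, TGF-b1 LAP, biotinylated anti-LAP antibody and acceptor beads for 2 h, then streptavidin donor beads 30 min, room temperature, in 50 mM Tris-HCl pH 7.5, 0.1% BSA, 1 mM CaCl2/MgCl2. AlphaScreen signal (680 nm excitation, 520-620 nm emission); IC50 by four-parameter fit.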
# human integrin αVβ1 = human integrin αVβ1 (Homo sapiens, UniProt P05556+P06756)
# Chain of human integrin αVβ1 (P06756 31-992 limits assumed): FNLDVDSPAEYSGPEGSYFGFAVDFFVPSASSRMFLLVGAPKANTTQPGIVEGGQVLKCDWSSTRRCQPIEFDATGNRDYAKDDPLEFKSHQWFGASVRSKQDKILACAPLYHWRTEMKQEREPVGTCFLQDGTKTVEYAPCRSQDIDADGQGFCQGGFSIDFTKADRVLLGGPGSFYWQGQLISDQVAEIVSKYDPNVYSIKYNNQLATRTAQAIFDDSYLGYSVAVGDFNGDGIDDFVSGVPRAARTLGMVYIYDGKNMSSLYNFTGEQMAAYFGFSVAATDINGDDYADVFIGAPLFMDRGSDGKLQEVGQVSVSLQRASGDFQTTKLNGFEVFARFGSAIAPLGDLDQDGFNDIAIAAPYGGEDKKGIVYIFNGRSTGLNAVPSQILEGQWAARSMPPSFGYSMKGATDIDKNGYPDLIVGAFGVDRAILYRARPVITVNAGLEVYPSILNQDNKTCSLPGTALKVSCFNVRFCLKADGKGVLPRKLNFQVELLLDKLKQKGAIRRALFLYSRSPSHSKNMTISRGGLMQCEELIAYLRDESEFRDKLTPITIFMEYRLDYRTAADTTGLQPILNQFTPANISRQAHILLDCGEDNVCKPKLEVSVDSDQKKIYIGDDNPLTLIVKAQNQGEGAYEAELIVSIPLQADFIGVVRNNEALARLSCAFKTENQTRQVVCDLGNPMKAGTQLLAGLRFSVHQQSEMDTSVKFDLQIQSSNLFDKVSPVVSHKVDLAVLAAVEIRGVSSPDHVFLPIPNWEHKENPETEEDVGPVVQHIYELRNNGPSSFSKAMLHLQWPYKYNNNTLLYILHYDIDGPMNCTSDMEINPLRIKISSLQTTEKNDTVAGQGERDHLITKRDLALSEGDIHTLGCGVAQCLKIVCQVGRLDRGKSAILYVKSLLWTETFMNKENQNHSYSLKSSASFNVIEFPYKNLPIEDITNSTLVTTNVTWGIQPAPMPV
# Chain of human integrin αVβ1 (P05556 21-728 limits assumed): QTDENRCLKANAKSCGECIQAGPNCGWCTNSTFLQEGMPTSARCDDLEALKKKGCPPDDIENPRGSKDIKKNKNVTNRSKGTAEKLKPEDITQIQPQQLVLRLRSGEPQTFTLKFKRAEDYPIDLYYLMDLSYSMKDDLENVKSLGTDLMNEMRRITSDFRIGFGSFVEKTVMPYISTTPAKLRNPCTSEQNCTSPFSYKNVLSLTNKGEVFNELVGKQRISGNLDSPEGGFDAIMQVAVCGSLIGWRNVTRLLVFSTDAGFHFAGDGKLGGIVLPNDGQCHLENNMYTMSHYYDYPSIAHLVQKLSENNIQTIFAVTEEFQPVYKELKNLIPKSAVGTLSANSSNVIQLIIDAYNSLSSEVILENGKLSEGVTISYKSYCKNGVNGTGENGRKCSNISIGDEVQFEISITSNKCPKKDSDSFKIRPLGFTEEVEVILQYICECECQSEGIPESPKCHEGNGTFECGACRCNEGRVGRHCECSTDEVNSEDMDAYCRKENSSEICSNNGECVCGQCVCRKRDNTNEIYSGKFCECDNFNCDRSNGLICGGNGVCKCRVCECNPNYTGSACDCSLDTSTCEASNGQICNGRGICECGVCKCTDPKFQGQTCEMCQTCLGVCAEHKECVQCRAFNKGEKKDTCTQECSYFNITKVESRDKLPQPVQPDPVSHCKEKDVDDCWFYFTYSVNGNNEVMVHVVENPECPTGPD
# Summary of the method: as §1
# human integrin αVβ6 = human integrin αVβ6 (Homo sapiens, UniProt P06756+P18564)
# Chain of human integrin αVβ6 (P06756 31-992 limits assumed): as the sequence (P06756 31-992 limits assumed) above
# Chain of human integrin αVβ6 (P18564 22-707 limits assumed): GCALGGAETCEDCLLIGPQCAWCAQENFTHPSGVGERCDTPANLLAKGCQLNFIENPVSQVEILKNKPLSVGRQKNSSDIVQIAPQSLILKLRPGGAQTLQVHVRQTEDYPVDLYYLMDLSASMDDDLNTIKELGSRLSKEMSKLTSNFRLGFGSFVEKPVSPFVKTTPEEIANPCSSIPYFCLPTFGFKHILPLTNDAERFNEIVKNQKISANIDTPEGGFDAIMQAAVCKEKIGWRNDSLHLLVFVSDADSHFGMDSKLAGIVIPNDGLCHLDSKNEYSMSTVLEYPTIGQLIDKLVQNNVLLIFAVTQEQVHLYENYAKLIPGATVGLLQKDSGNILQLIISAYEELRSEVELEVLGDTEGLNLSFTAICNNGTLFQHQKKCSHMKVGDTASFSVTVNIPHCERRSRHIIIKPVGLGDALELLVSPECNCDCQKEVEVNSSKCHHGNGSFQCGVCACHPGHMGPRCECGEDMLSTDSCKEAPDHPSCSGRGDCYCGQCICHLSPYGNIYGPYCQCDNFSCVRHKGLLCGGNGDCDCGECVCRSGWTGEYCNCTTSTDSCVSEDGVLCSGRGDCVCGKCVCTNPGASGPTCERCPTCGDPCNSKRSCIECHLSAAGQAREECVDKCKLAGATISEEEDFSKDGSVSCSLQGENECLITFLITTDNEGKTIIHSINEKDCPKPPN
# Summary of the method: as §1
# Chain of human integrin αVβ8 (P06756 31-992 limits assumed): as the sequence (P06756 31-992 limits assumed) above
# Chain of human integrin αVβ8 (P26012 43-684 limits assumed): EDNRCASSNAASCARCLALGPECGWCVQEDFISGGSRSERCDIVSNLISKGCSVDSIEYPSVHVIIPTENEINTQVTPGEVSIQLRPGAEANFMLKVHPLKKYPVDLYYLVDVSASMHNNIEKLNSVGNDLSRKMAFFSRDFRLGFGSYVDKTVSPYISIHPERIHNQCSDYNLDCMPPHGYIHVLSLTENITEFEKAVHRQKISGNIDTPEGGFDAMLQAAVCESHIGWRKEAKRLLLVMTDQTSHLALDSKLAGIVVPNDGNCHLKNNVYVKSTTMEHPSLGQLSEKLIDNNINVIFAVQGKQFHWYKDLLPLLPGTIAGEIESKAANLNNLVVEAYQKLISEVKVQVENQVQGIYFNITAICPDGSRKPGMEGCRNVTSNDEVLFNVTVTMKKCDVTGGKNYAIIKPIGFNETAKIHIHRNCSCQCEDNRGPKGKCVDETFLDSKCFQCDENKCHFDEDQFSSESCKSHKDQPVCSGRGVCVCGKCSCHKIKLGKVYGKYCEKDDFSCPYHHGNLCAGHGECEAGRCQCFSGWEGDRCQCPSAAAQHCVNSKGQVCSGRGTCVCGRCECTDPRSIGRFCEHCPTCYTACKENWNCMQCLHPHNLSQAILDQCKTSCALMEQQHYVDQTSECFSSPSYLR
SMILES,IC50 (human integrin αVβ8) [nM],IC50 (human integrin αVβ1) [nM],IC50 (human integrin αVβ6) [nM]
"COc1cccc(C#N)c1C1(C(=O)N[C@@H](CCOCCCCc2ccc3c(n2)NCCC3)C(=O)O)CC1 [Compound 56, N-(1-(2-cyano-6-methoxyphenyl)cyclopropane-1-carbonyl)-O-(4-(5,6,7,8-tetrahydro-1,8-naphthyridin-2-yl)butyl)-L-homoserine]",< 50,50 to 150,≥ 500
"O=C(O)[C@H](CCOCCCCc1ccc2c(n1)NCCC2)NC(=O)C1(c2cccnc2C(F)F)CC1 [Compound 57, N-(1-(2-(difluoromethyl)pyridin-3-yl)cyclopropane-1-carbonyl)-O-(4-(5,6,7,8-tetrahydro-1,8-naphthyridin-2-yl)butyl)-L-homoserine]",50 to 150,< 50,≥ 500
"O=C(O)[C@H](CCOCCCCc1ccc2c(n1)NCCC2)NC(=O)C1(c2ncccc2C2CC2)CC1 [Compound 58, N-(1-(3-cyclopropylpyridin-2-yl)cyclopropane-1-carbonyl)-O-(4-(5,6,7,8-tetrahydro-1,8-naphthyridin-2-yl)butyl)-L-homoserine]",150 to 250,< 50,≥ 500
"O=C(O)[C@H](CCOCCCCc1ccc2c(n1)NCCC2)NC(=O)C1(c2cncnc2C(F)F)CC1 [Compound 59, N-(1-(4-(difluoromethyl)pyrimidin-5-yl)cyclopropane-1-carbonyl)-O-(4-(5,6,7,8-tetrahydro-1,8-naphthyridin-2-yl)butyl)-L-homoserine]",< 50,< 50,≥ 500
"Cc1nc(C)c(C2(C(=O)N[C@@H](CCOCCCCc3ccc4c(n3)NCCC4)C(=O)O)CC2)c(Cl)n1 [Compound 60, N-(1-(4-chloro-2,6-dimethylpyrimidin-5-yl)cyclopropane-1-carbonyl)-O-(4-(5,6,7,8-tetrahydro-1,8-naphthyridin-2-yl)butyl)-L-homoserine]",< 50,< 50,≥ 500
"COc1ncnc(C)c1C1(C(=O)N[C@@H](CCOCCCCc2ccc3c(n2)NCCC3)C(=O)O)CC1 [Compound 61, N-(1-(4-methoxy-6-methylpyrimidin-5-yl)cyclopropane-1-carbonyl)-O-(4-(5,6,7,8-tetrahydro-1,8-naphthyridin-2-yl)butyl)-L-homoserine]",< 50,< 50,≥ 500
"COc1ncnc(Cl)c1C1(C(=O)N[C@@H](CCOCCCCc2ccc3c(n2)NCCC3)C(=O)O)CC1 [Compound 62, N-(1-(4-chloro-6-methoxypyrimidin-5-yl)cyclopropane-1-carbonyl)-O-(4-(5,6,7,8-tetrahydro-1,8-naphthyridin-2-yl)butyl)-L-homoserine]",< 50,< 50,≥ 500
"O=C(O)[C@H](CCOCCCCc1ccc2c(n1)NCCC2)NC(=O)C1(c2c(Cl)nc[nH]c2=O)CC1 [Compound 63, N-(1-(4-chloro-6-oxo-1,6-dihydropyrimidin-5-yl)cyclopropane-1-carbonyl)-O-(4-(5,6,7,8-tetrahydro-1,8-naphthyridin-2-yl)butyl)-L-homoserine]",50 to 150,150 to 250,≥ 500
"O=C(O)[C@H](CCOCCCCc1ccc2c(n1)NCCC2)NC(=O)C1(n2cncc2C(F)F)CC1 [Compound 64, N-(1-(5-(difluoromethyl)-1H-imidazol-1-yl)cyclopropane-1-carbonyl)-O-(4-(5,6,7,8-tetrahydro-1,8-naphthyridin-2-yl)butyl)-L-homoserine]",50 to 150,< 50,≥ 500
"O=C(O)[C@H](CCOCCCCc1ccc2c(n1)NCCC2)NC(=O)C1(n2c(Cl)cccc2=O)CC1 [Compound 65, N-(1-(6-chloro-2-oxopyridin-1(2H)-yl)cyclopropane-1-carbonyl)-O-(4-(5,6,7,8-tetrahydro-1,8-naphthyridin-2-yl)butyl)-L-homoserine]",< 50,< 50,≥ 500
"O=C(O)[C@H](CCOCCCCc1ccc2c(n1)NCCC2)NC(=O)C1(c2[nH]c(=O)ccc2Cl)CC1 [Compound 66, N-(1-(3-chloro-6-oxo-1,6-dihydropyridin-2-yl)cyclopropane-1-carbonyl)-O-(4-(5,6,7,8-tetrahydro-1,8-naphthyridin-2-yl)butyl)-L-homoserine]",< 50,< 50,≥ 500
"O=C(O)[C@H](CCOCCCCc1ccc2c(n1)NCCC2)NC(=O)C1(c2c(Cl)cc[nH]c2=O)CC1 [Compound 68, N-(1-(4-chloro-2-oxo-1,2-dihydropyridin-3-yl)cyclopropane-1-carbonyl)-O-(4-(5,6,7,8-tetrahydro-1,8-naphthyridin-2-yl)butyl)-L-homoserine]",< 50,< 50,≥ 500
"O=C(O)[C@H](CCOCCCCc1ccc2c(n1)NCCC2)NC(=O)C1(n2nc(Cl)cc2Cl)CC1 [Compound 69, N-(1-(3,5-dichloro-1H-pyrazol-1-yl)cyclopropane-1-carbonyl)-O-(4-(5,6,7,8-tetrahydro-1,8-naphthyridin-2-yl)butyl)-L-homoserine]",< 50,< 50,250 to 500
"O=C(O)[C@H](CCOCCCCc1ccc2c(n1)NCCC2)NC(=O)C1(c2[nH]ncc2Cl)CC1 [Compound 71, N-(1-(4-chloro-1H-pyrazol-5-yl)cyclopropane-1-carbonyl)-O-(4-(5,6,7,8-tetrahydro-1,8-naphthyridin-2-yl)butyl)-L-homoserine]",< 50,< 50,≥ 500
"Cc1cc(Cl)n(C2(C(=O)N[C@@H](CCOCCCCc3ccc4c(n3)NCCC4)C(=O)O)CC2)n1 [Compound 72, N-(1-(5-chloro-3-methyl-1H-pyrazol-1-yl)cyclopropane-1-carbonyl)-O-(4-(5,6,7,8-tetrahydro-1,8-naphthyridin-2-yl)butyl)-L-homoserine]",< 50,< 50,≥ 500
"O=C(O)[C@H](CCOCCCCc1ccc2c(n1)NCCC2)NC(=O)C1(c2cn[nH]c2Cl)CC1 [Compound 74, N-(1-(5-chloro-1H-pyrazol-4-yl)cyclopropane-1-carbonyl)-O-(4-(5,6,7,8-tetrahydro-1,8-naphthyridin-2-yl)butyl)-L-homoserine]",< 50,< 50,≥ 500
"O=C(O)[C@H](CCOCCCCc1ccc2c(n1)NCCC2)NC(=O)C1(c2c(Cl)cn[nH]c2=O)CC1 [Compound 76, N-(1-(5-chloro-3-oxo-2,3-dihydropyridazin-4-yl)cyclopropane-1-carbonyl)-O-(4-(5,6,7,8-tetrahydro-1,8-naphthyridin-2-yl)butyl)-L-homoserine]",< 50,< 50,≥ 500

# More lines, now with the values ahead:
IC50 (human integrin αVβ8) [nM],IC50 (human integrin αVβ1) [nM],IC50 (human integrin αVβ6) [nM],SMILES
< 50,< 50,≥ 500,"O=C(O)[C@H](CCOCCCCc1ccc2c(n1)NCCC2)NC(=O)C1(c2nccnc2C(F)(F)F)CC1 [Compound 67, O-(4-(5,6,7,8-tetrahydro-1,8-naphthyridin-2-yl)butyl)-N-(1-(3-(trifluoromethyl)pyrazin-2-yl)cyclopropane-1-carbonyl)-L-homoserine]"
< 50,< 50,≥ 500,"O=C(O)[C@H](CCOCCCCc1ccc2c(n1)NCCC2)NC(=O)C1(n2ccnc2C(F)(F)F)CC1 [Compound 70, O-(4-(5,6,7,8-tetrahydro-1,8-naphthyridin-2-yl)butyl)-N-(1-(2-(trifluoromethyl)-1H-imidazol-1-yl)cyclopropane-1-carbonyl)-L-homoserine]"
< 50,< 50,≥ 500,"Cc1ncc(Cl)c(C2(C(=O)N[C@@H](CCOCCCCc3ccc4c(n3)NCCC4)C(=O)O)CC2)n1 [Compound 73, N-(1-(5-chloro-2-methylpyrimidin-4-yl)cyclopropane-1-carbonyl)-O-(4-(5,6,7,8-tetrahydro-1,8-naphthyridin-2-yl)butyl)-L-homoserine]"
< 50,< 50,≥ 500,"Cn1cc(C#N)c(C2(C(=O)N[C@@H](CCOCCCCc3ccc4c(n3)NCCC4)C(=O)O)CC2)n1 [Compound 75, N-(1-(4-cyano-1-methyl-1H-pyrazol-3-yl)cyclopropane-1-carbonyl)-O-(4-(5,6,7,8-tetrahydro-1,8-naphthyridin-2-yl)butyl)-L-homoserine]"
< 50,< 50,≥ 500,"Cn1cc(C(F)(F)F)c(C2(C(=O)N[C@@H](CCOCCCCc3ccc4c(n3)NCCC4)C(=O)O)CC2)n1 [Compound 77, N-(1-(1-methyl-4-(trifluoromethyl)-1H-pyrazol-3-yl)cyclopropane-1-carbonyl)-O-(4-(5,6,7,8-tetrahydro-1,8-naphthyridin-2-yl)butyl)-L-homoserine]"
< 50,< 50,≥ 500,"N#Cc1c[nH]nc1C1(C(=O)N[C@@H](CCOCCCCc2ccc3c(n2)NCCC3)C(=O)O)CC1 [Compound 78, N-(1-(4-cyano-1H-pyrazol-3-yl)cyclopropane-1-carbonyl)-O-(4-(5,6,7,8-tetrahydro-1,8-naphthyridin-2-yl)butyl)-L-homoserine]"
< 50,< 50,≥ 500,"O=C(O)[C@H](CCOCCCCc1ccc2c(n1)NCCC2)NC(=O)C1(c2[nH]cnc2Cl)CC1 [Compound 79, N-(1-(4-chloro-1H-imidazol-5-yl)cyclopropane-1-carbonyl)-O-(4-(5,6,7,8-tetrahydro-1,8-naphthyridin-2-yl)butyl)-L-homoserine]"
< 50,< 50,≥ 500,"Cn1cnc(Cl)c1C1(C(=O)N[C@@H](CCOCCCCc2ccc3c(n2)NCCC3)C(=O)O)CC1 [Compound 80, N-(1-(4-chloro-1-methyl-1H-imidazol-5-yl)cyclopropane-1-carbonyl)-O-(4-(5,6,7,8-tetrahydro-1,8-naphthyridin-2-yl)butyl)-L-homoserine]"

# — patent publication US20240245682A1, “ALPHA-V-BETA-8 INTEGRIN INHIBITORS AND USES THEREOF” (Pliant Therapeutics, Inc., priority 2022, published 2024)
